# Laboratory results published in US20060046972A1, “Cytotoxic nucleoside analog compound 003 for treating cancer” (Parker Hughes Institute, priority 2004, published 2006).
# Test system: U373 glioblastoma cells
# Assay: Confocal laser scanning microscopy of mitotic spindle, U373
# Format: cell-based, human
# Details: 100 μM
# Procedure: Immunofluorenscence was used to examine the spindle features of human cancer cell lines treated with Compound 003 or 0.5% DMSO. Initially, cells at log phase were seeded onto sterile 22 mm coverslips in six -well culture plates. 24 hours later, the cells were treated with compound 003 for 2 hours at 37° C., 5% C02, fixed in methanol (−20° C. 15 min) followed by a 15 minute incubation with PBS +0.1.% Tx-100. The coverslips were incubated with antibodies raised against α-tubulin, γ-tubulin (Sigma Chemical Co., St Louis, Mo.) (40 min 37° C.), washed in PBS-Tx-100, and incubated with an appropriate secondary antibody conjugated to FITC (Jackson ImmunoResearch, Westgrove, Pa.). Cellular DNA was labeled with 5 μM TOTO3 (Molecular Probes, Eugene, Oreg.) for 20 minutes. Coverslips were immediately inverted onto slides in Vectashield (Vector Labs, Burlingame, Calif.) to prevent photobleaching, sealed with nail varnish and stored at −20° C. The slides were examined using a Bio-Rad MRC-1024 Laser Scanning Confocal Microscope equipped with a Kr/Ar laser (BioRad, Hercules, Calif.) mounted on a Nikon Eclipse E800 upright microscope with high numerical aperture objectives (Nikon, Melville, N.Y.). Digital data were processed using Lasersharp (BioRad) and Adobe Photoshop software (Adobe Systems, Mountain View, Calif.). […]
structure (smiles),measurement,value
"COC(=O)C(C)NP(=O)(OCC1OC(n2cc(C)c(=O)[nH]c2=O)CC1N=[N+]=[N-])Oc1ccc(OC)cc1 (stereo not shown) [Compound 003, 3′-azidothymidine 5′-[p-methoxyphenylmethoxyalaninyl phosphate]]",mitotic spindle formation,induced aberrant multipolar spindle formation
